“And” between values parts separate entries of the source, which are not always exact repeats. Equal entries are not always repeated.

Here are results for 5 molecules from PubChem BioAssay AID2060494 (Molecular Pharmacology Branch, DTP, NCI, 2025).

This assay deals with 435261-313-R-J1-PDC complex spheroid viability. Description: Anticancer human tumor 435261-313-R-J1-PDC patient-derived colon adenocarcinoma cell line growth inhibition [GQUAD]. Conditions: for viability, T/C: stronger effect = lower value. The method, boiled down:
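Tumor cells were grown as complex spheroids with HUVEC endothelial cells and mesenchymal stem cells as stroma. G-quadruplex stabilizers were combined with targeted agents over half-log dilutions from near the clinical Cmax, or from 10 microM.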

The mark [1] stands for this setting: curve of first compound, second compound 0.0316 µM.
The mark [2] stands for this setting: curve of first compound, second compound 0.1 µM.
Setting [3] is: curve of first compound, second compound 0.316 µM.
The mark [4] stands for this setting: curve of first compound, second compound 1 µM.
The mark [5] stands for this setting: curve of first compound, second compound 3.16 µM.
[6] abbreviates: curve of first compound, second compound 10 µM.
The mark [7] stands for this setting: second compound 0.0316 µM, first compound 0.0316 µM.
The mark [8] stands for this setting: second compound 0.0316 µM, first compound 0.1 µM.
Where [9] appears, read: second compound 0.0316 µM, first compound 0.316 µM.
Where [10] appears, read: second compound 0.0316 µM, first compound 1 µM.
Setting [11] is: second compound 0.0316 µM, first compound 3.16 µM.
Where [12] appears, read: second compound 0.0316 µM, first compound 10 µM.
Setting [13] is: second compound 0.1 µM, first compound 0.0316 µM.
The mark [14] stands for this setting: second compound 0.1 µM, first compound 0.1 µM.
[15] abbreviates: second compound 0.1 µM, first compound 0.316 µM.
Setting [16] is: second compound 0.1 µM, first compound 1 µM.
Where [17] appears, read: second compound 0.1 µM, first compound 3.16 µM.
Setting [18] is: second compound 0.1 µM, first compound 10 µM.
Setting [19] is: second compound 0.316 µM, first compound 0.0316 µM.
Where [20] appears, read: second compound 0.316 µM, first compound 0.1 µM.
[21] abbreviates: second compound 0.316 µM, first compound 0.316 µM.
Setting [22] is: second compound 0.316 µM, first compound 1 µM.
Where [23] appears, read: second compound 0.316 µM, first compound 3.16 µM.
Setting [24] is: second compound 0.316 µM, first compound 10 µM.
Where [25] appears, read: second compound 1 µM, first compound 0.0316 µM.
Setting [26] is: second compound 1 µM, first compound 0.1 µM.
The mark [27] stands for this setting: second compound 1 µM, first compound 0.316 µM.
[28] abbreviates: second compound 1 µM, first compound 1 µM.
The mark [29] stands for this setting: second compound 1 µM, first compound 3.16 µM.
Where [30] appears, read: second compound 1 µM, first compound 10 µM.
Where [31] appears, read: second compound 3.16 µM, first compound 0.0316 µM.
[32] abbreviates: second compound 3.16 µM, first compound 0.1 µM.
Setting [33] is: second compound 3.16 µM, first compound 0.316 µM.
Setting [34] is: second compound 3.16 µM, first compound 1 µM.
[35] abbreviates: second compound 3.16 µM, first compound 3.16 µM.
Setting [36] is: second compound 3.16 µM, first compound 10 µM.
The mark [37] stands for this setting: second compound 10 µM, first compound 0.0316 µM.
[38] abbreviates: second compound 10 µM, first compound 0.1 µM.
[39] abbreviates: second compound 10 µM, first compound 0.316 µM.
The mark [40] stands for this setting: second compound 10 µM, first compound 1 µM.
Where [41] appears, read: second compound 10 µM, first compound 3.16 µM.
The mark [42] stands for this setting: second compound 10 µM, first compound 10 µM.
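Also: spheroids exposed to the agents for seven days before readout.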
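For viability, T/C in this document: percent of vehicle control viability with DMSO wells as 100%.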

As to `Nc1ccn(C2OC(CO)C(O)C2(F)F)c(=O)n1` (stereo not given), the viability, T/C is 54.8% and 88.1% and 71.3% (compound 0.0316 µM); 48.5% and 89.5% and 58.6% (compound 0.1 µM); 54.9% and 84.8% and 61.3% (compound 0.316 µM); 51.8% and 98.2% and 50.4% (compound 1 µM); 58.7% and 76.3% and 69.7% (compound 3.16 µM); 51.3% and 66.3% and 51.9% (compound 10 µM). Besides, where the note is “curve of compound”, the IC50 was more than 10 µM.

As for `CC(C)n1c(=O)n(C)c2cnc3cc(F)c(-c4ccc(OCCCN5CCCCC5)nc4)cc3c21` + Cc1cnc(CNC(=O)c2c(=O)c3ccc(N4CCCN(C)CC4)nc3n3c2sc2ccccc23)cn1, the IC50 by setting is: under setting [1], 3.96 µM; under setting [2], 4.64 µM; under setting [3], 1.08 µM; under setting [4], less than 0.0316 µM; under setting [5], less than 0.0316 µM; under setting [6], less than 0.0316 µM. The viability, T/C is 81.5% under setting [7]; 68% under setting [8]; 74.5% under setting [9]; 56.7% under setting [10]; 61.4% under setting [11]; 32.5% under setting [12]. The viability, T/C is 61% under setting [13]; 61.6% under setting [14]; 63.3% under setting [15]; 57.8% under setting [16]; 60.9% under setting [17]; 28.6% under setting [18]. Besides, the viability, T/C reads like this: under setting [19], 50.7%; under setting [20], 64.7%; under setting [21], 52.8%; under setting [22], 49.3%; under setting [23], 42.9%; under setting [24], 30.9%. Moreover, the viability, T/C reads like this: under setting [25], 42.4%; under setting [26], 45.1%; under setting [27], 45.7%; under setting [28], 48.1%; under setting [29], 26.1%; under setting [30], 5.54%. For the same molecule, the viability, T/C under setting [31] was 14.6%; the viability, T/C under setting [32] is 8.86%; the viability, T/C under setting [33] was 7.48%; the viability, T/C under setting [34] was 16.6%; the viability, T/C under setting [35] was 5.15%; the viability, T/C under setting [36] is 0.23%. In addition, the viability, T/C was 0.18% under setting [37]; 0.2% under setting [38]; 0.2% under setting [39]; 0.18% under setting [40]; 0.29% under setting [41]; 0.16% under setting [42].

With `Cc1cccc(N(C)C(=O)C2C(O)CCN2c2nc(C)cc(C(F)(F)F)c2C#N)c1` (stereo not given) + CN(C)c1ccc(Nc2c3ccc(NC(=O)CCN4CCCC4)cc3nc3cc(NC(=O)CCN4CCCC4)ccc23)cc1, the IC50 reads like this: under setting [1], more than 10 µM; under setting [2], more than 10 µM; under setting [3], more than 10 µM; under setting [4], more than 10 µM; under setting [5], more than 10 µM; under setting [6], less than 0.0316 µM. In addition, the viability, T/C is, setting by setting: under setting [7], 97.7%; under setting [8], 92.1%; under setting [9], 99.7%; under setting [10], 90.6%; under setting [11], 96.2%; under setting [12], 123%. Further, the viability, T/C is, setting by setting: under setting [13], 84.8%; under setting [14], 92.9%; under setting [15], 81.6%; under setting [16], 74.5%; under setting [17], 99%; under setting [18], 84.8%. Besides, the viability, T/C by setting is: under setting [19], 86.9%; under setting [20], 94%; under setting [21], 76.8%; under setting [22], 90.3%; under setting [23], 81.7%; under setting [24], 73.1%. The viability, T/C is 79.3% under setting [25]; 95.5% under setting [26]; 111% under setting [27]; 93% under setting [28]; 70.7% under setting [29]; 86% under setting [30]. In addition, the viability, T/C by setting is: under setting [31], 64.3%; under setting [32], 65.8%; under setting [33], 43.5%; under setting [34], 66.4%; under setting [35], 59.4%; under setting [36], 44.8%. Moreover, the viability, T/C runs as follows: under setting [37], 34.9%; under setting [38], 56.7%; under setting [39], 47.8%; under setting [40], 34%; under setting [41], 37.4%; under setting [42], 20.9%.

`COc1cccc2c1C(=O)c1c(O)c3c(c(O)c1C2=O)CC(O)(C(=O)CO)CC3OC1CC(N)C(O)C(C)O1` (stereo not given): the viability, T/C was 94.1% and 85% (compound 0.0316 µM); 67.5% and 76.3% (compound 0.1 µM); 74.4% and 44% (compound 0.316 µM); 37% and 26.8% (compound 1 µM); 2.3% and 1.87% (compound 3.16 µM); 4.42% and 1.38% (compound 10 µM). For the same molecule, the IC50 (curve of compound) is 0.656 µM and 0.293 µM.

Turning to `C=CCn1c(=O)c2cnc(Nc3ccc(N4CCN(C)CC4)cc3)nc2n1-c1cccc(C(C)(C)O)n1`, the viability, T/C is, setting by setting: (compound 0.0316 µM) 86.6% and 93%; (compound 0.1 µM) 114% and 97.5%; (compound 0.316 µM) 94.4% and 87.1%; (compound 1 µM) 74.3% and 105%; (compound 3.16 µM) 70.5% and 77.6%; (compound 10 µM) 57.6% and 47%. The IC50 (curve of compound) is > 10 µM and 8.92 µM.

A word on the viability, T/C: it is the result in the treated group divided by that in the control group, in per cent. Usually IC50 stands for the point on the concentration scale where inhibition reaches its midpoint.
